Assay results published in US12187701B2, “Taire family kinase inhibitors and uses thereof” (Dana-Farber Cancer Institute, Inc., priority 2018, dated 2025).

Tests used:
Cdk14/CycY = Cdk14/CycY (Homo sapiens (Human), UniProt O94921); assay: Lanthascreen Eu kinase binding assay for Cdk14/CycY with 30 minute pre-incubation; settings: 30 minute pre-incubation of kinase with compound; read-out: IC50 CDK14 binding by Lanthascreen
Method: Lanthascreen Eu kinase binding assays were conducted for Cdk14/CycY largely as performed in the commercial assay service by Life Technologies, but included a 30 minute pre-incubation step of the kinase with candidate compounds to facilitate covalent bond formation.

HCT116 cells = assay: Antiproliferation assay, Cell Titer Glo, 72 hours; type: cell-based; settings: Homo sapiens, HCT-116, 72 h
Method: HCT116 cells were plated in 384-well plates at 750 cells/well in 50 ul fresh media (McCoy's 5A+10% FBS+1% Penn/Strep) and treated with 0.1 μl candidate compounds in four-fold dilution series using the Janus pinner. Cells were incubated with compounds for 72 hours in 37° C. 5% CO2. Anti-proliferative effects of these compounds were assessed 72 hours after compound addition using Cell Titer Glo (Promega cat #G7571) as described in product manual by luminescence measurements using an Envision platereader. All proliferation assays were performed in biological quadruplicate. IC50 values were determined using a non-linear regression curve fit in GraphPad Prism 6.

Cdk14/CycY, sequence (O94921 whole entry): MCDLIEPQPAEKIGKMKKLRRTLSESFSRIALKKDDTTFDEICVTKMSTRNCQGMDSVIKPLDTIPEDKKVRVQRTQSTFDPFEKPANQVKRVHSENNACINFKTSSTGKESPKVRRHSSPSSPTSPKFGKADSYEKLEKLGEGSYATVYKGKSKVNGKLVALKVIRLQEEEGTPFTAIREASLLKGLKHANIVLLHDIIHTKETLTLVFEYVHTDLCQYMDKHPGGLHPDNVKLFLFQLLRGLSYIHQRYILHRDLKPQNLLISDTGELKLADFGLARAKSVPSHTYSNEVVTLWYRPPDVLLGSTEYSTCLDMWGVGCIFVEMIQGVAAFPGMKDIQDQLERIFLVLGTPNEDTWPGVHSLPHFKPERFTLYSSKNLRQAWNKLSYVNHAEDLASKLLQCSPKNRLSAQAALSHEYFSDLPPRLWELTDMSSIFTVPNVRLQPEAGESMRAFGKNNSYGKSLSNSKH
Cdk14/CycY, sequence (Q8ND76 whole entry partner): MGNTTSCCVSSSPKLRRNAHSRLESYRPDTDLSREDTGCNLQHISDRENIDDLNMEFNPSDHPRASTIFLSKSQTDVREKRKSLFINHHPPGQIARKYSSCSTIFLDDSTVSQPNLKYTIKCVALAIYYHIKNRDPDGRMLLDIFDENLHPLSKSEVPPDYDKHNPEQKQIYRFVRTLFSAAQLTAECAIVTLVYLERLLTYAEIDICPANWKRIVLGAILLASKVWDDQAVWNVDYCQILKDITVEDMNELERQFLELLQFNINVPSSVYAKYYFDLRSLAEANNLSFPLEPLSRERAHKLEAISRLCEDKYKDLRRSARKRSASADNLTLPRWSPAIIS

IC50 (Cdk14/CycY) [µM] | IC50 (HCT116 cells) [µM] | SMILES
0.082 | 0.071 | CN(C)C/C=C/C(=O)Nc1ccc(C(=O)N2CCC(NC(=O)c3n[nH]cc3NC(=O)c3c(Cl)cccc3Cl)CC2)cc1 [FMF-03-187-1, (E)-4-(2,6-dichlorobenzamido)-N-(1-(4-(4-(dimethylamino)but-2-enamido)benzoyl)piperidin-4-yl)-1H-pyrazole-3-carboxamide]
> 1 | 0.169 | C=CC(=O)Nc1cccc(NC(=O)c2n[nH]cc2NC(=O)c2c(Cl)cccc2Cl)c1 [FMF-03-188-1, N-(3-acrylamidophenyl)-4-(2,6-dichlorobenzamido)-1H-pyrazole-3-carboxamide]
0.088 | 0.723 | CN(C)C/C=C/C(=O)Nc1cccc(NC(=O)c2n[nH]cc2NC(=O)c2c(Cl)cccc2Cl)c1 [FMF-03-188-2, (E)-4-(2,6-dichlorobenzamido)-N-(3-(4-(dimethylamino)but-2-enamido)phenyl)-1H-pyrazole-3-carboxamide]
0.077 | 0.485 | CN(C)C/C=C/C(=O)Nc1cccc(C(=O)N2CCC(NC(=O)c3n[nH]cc3NC(=O)c3c(Cl)cccc3Cl)CC2)c1 [FMF-03-196-2, (E)-4-(2,6-dichlorobenzamido)-N-(1-(3-(4-(dimethylamino)but-2-enamido)benzoyl)piperidin-4-yl)-1H-pyrazole-3-carboxamide]
0.062 | 0.031 | C=CC(=O)Nc1ccc(S(=O)(=O)N2CCC(NC(=O)c3n[nH]cc3NC(=O)c3c(Cl)cccc3Cl)CC2)cc1 [FMF-03-197-1, N-(1-((4-acrylamidophenyl)sulfonyl)piperidin-4-yl)-4-(2,6-dichlorobenzamido)-1H-pyrazole-3-carboxamide]
0.01 | < 0.0001 | C=CC(=O)Nc1ccc(CN2CCC(NC(=O)c3n[nH]cc3NC(=O)c3c(Cl)cccc3Cl)CC2)cc1 [FMF-03-199-1, N-(1-(4-acrylamidobenzyl)piperidin-4-yl)-4-(2,6-dichlorobenzamido)-1H-pyrazole-3-carboxamide]
0.609 | 0.006 | C=CC(=O)Nc1ccc(C(=O)Nc2cccc(NC(=O)c3n[nH]cc3NC(=O)c3c(Cl)cccc3Cl)c2)cc1 [FMF-03-203-1, N-(3-(4-acrylamidobenzamido)phenyl)-4-(2,6-dichlorobenzamido)-1H-pyrazole-3-carboxamide]
0.072 | 0.024 | CN(C)C/C=C/C(=O)Nc1ccc(C(=O)Nc2cccc(NC(=O)c3n[nH]cc3NC(=O)c3c(Cl)cccc3Cl)c2)cc1 [FMF-03-204-1, (E)-4-(2,6-dichlorobenzamido)-N-(3-(4-(4-(dimethylamino)but-2-enamido)benzamido)phenyl)-1H-pyrazole-3-carboxamide]
0.308 | 0.031 | C=CC(=O)Nc1cccc(C(=O)Nc2cccc(NC(=O)c3n[nH]cc3NC(=O)c3c(Cl)cccc3Cl)c2)c1 [FMF-04-011-1, N-(3-(3-acrylamidobenzamido)phenyl)-4-(2,6-dichlorobenzamido)-1H-pyrazole-3-carboxamide]
0.169 | 0.008 | C=CC(=O)Nc1ccc(C(=O)Nc2ccc(NC(=O)c3n[nH]cc3NC(=O)c3c(Cl)cccc3Cl)cc2)cc1 [FMF-04-012-1]
> 1 | > 10 | C=CC(=O)Nc1ccc(S(=O)(=O)N2CCC[C@@H](NC(=O)c3n[nH]cc3NC(=O)c3c(Cl)cccc3Cl)C2)cc1 [FMF-04-056-1, (R)—N-(1-((4-acrylamidophenyl)sulfonyl)piperidin-3-yl)-4-(2,6-dichlorobenzamido)-1H-pyrazole-3-carboxamide]
0.836 | > 10 | C=CC(=O)Nc1cccc(S(=O)(=O)N2CCC[C@@H](NC(=O)c3n[nH]cc3NC(=O)c3c(Cl)cccc3Cl)C2)c1 [FMF-04-057-1, (R)—N-(1-((3-acrylamidophenyl)sulfonyl)piperidin-3-yl)-4-(2,6-dichlorobenzamido)-1H-pyrazole-3-carboxamide]
> 1 | 9.84 | CN(C)C/C=C/C(=O)Nc1cccc(S(=O)(=O)N2CCC[C@@H](NC(=O)c3n[nH]cc3NC(=O)c3c(Cl)cccc3Cl)C2)c1 [FMF-04-057-2, (R,E)-4-(2,6-dichlorobenzamido)-N-(1-((3-(4-(dimethylamino)but-2-enamido)phenyl)sulfonyl)piperidin-3-yl)-1H-pyrazole-3-carboxamide]
> 1 | > 10 | C=CC(=O)Nc1ccc(C(=O)N2CCC[C@@H](NC(=O)c3n[nH]cc3NC(=O)c3c(Cl)cccc3Cl)C2)cc1 [FMF-04-058-1, (R)—N-(1-(4-acrylamidobenzoyl)piperidin-3-yl)-4-(2,6-dichlorobenzamido)-1H-pyrazole-3-carboxamide]
> 1 | 0.726 | CN(C)C/C=C/C(=O)Nc1ccc(C(=O)N2CCC[C@@H](NC(=O)c3n[nH]cc3NC(=O)c3c(Cl)cccc3Cl)C2)cc1 [FMF-04-058-2, (R,E)-4-(2,6-dichlorobenzamido)-N-(1-(4-(4-(dimethylamino)but-2-enamido)benzoyl)piperidin-3-yl)-1H-pyrazole-3-carboxamide]
> 1 | 4.04 | C=CC(=O)Nc1cccc(C(=O)N2CCC[C@@H](NC(=O)c3n[nH]cc3NC(=O)c3c(Cl)cccc3Cl)C2)c1 [FMF-04-059-1, (R)—N-(1-(3-acrylamidobenzoyl)piperidin-3-yl)-4-(2,6-dichlorobenzamido)-1H-pyrazole-3-carboxamide]
> 1 | > 10 | CN(C)C/C=C/C(=O)Nc1cccc(C(=O)N2CCC[C@@H](NC(=O)c3n[nH]cc3NC(=O)c3c(Cl)cccc3Cl)C2)c1 [FMF-04-059-2, (R,E)-4-(2,6-dichlorobenzamido)-N-(1-(3-(4-(dimethylamino)but-2-enamido)benzoyl)piperidin-3-yl)-1H-pyrazole-3-carboxamide]
1.16 | 0.32 | Cc1cc(NC(=O)c2cccc(NC(=O)/C=C/CN(C)C)c2)ccc1NC(=O)c1n[nH]cc1NC(=O)c1c(Cl)cccc1Cl [FMF-04-085-2, (E)-4-(2,6-dichlorobenzamido)-N-(4-(3-(4-(dimethylamino)but-2-enamido)benzamido)-2-methylphenyl)-1H-pyrazole-3-carboxamide]
> 1 | > 10 | C=CC(=O)Nc1cccc(S(=O)(=O)N2CCC(N(C)C(=O)c3n[nH]cc3NC(=O)c3c(Cl)cccc3Cl)CC2)c1 [FMF-04-086-1, N-(1-((3-acrylamidophenyl)sulfonyl)piperidin-4-yl)-4-(2,6-dichlorobenzamido)-N-methyl-1H-pyrazole-3-carboxamide]
> 1 | 0.563 | C=CC(=O)Nc1cccc(S(=O)(=O)N2CCC(NC(=O)c3nscc3NC(=O)c3c(Cl)cccc3Cl)CC2)c1 [FMF-04-089-1, N-(1-((3-acrylamidophenyl)sulfonyl)piperidin-4-yl)-4-(2,6-dichlorobenzamido)isothiazole-3-carboxamide]
> 1 | 2.42 | C=CC(=O)Nc1cccc(S(=O)(=O)N2CCC(NC(=O)c3c(NC(=O)c4c(Cl)cccc4Cl)cnn3C)CC2)c1 [FMF-04-120-1, N-(1-((3-acrylamidophenyl)sulfonyl)piperidin-4-yl)-4-(2,6-dichlorobenzamido)-1-methyl-1H-pyrazole-5-carboxamide]
0.198 | 0.011 | C=CC(=O)Nc1cccc(CN2CCC(NC(=O)c3n[nH]cc3NC(=O)c3c(Cl)cc(Cl)cc3Cl)CC2)c1 [FMF-04-158-1, N-(1-(3-acrylamidobenzyl)piperidin-4-yl)-4-(2,4,6-trichlorobenzamido)-1H-pyrazole-3-carboxamide]
